From patent publication US12509444B2, “Compounds and methods for CD73 modulation and indications therefor” (Plexxikon Inc., priority 2019, dated 2025) come the findings set out here.

What is called IC50 is the point on the concentration scale where inhibition reaches its midpoint.

SMILES strings stand for the structures.

One experiment concerns the target T1, human CD73 (Homo sapiens, UniProt P21589).
T1 construct: expressed in transfected cells
T1 sequence (P21589 27-549): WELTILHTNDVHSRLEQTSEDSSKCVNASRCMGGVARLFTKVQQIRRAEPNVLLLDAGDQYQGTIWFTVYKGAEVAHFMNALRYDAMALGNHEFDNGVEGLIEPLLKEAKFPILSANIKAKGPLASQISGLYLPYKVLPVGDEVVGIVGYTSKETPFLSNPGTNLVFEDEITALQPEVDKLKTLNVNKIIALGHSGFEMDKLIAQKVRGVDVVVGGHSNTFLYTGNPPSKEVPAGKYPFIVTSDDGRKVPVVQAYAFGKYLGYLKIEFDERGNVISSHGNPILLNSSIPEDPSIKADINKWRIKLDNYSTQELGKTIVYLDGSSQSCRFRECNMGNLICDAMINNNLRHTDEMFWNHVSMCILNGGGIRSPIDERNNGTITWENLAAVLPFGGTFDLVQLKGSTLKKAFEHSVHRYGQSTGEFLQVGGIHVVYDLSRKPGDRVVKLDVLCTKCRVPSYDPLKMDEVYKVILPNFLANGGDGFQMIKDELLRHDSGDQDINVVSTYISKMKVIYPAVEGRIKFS
As to the kind of experiment: Inhibitor activity against CD73 in cell based assay (CD73 expressing CHO-K1 cells). The note with it: CHO-K1 cells expressing human CD73, 150 μM AMP, 4 hours of incubation; read-out: CHO-K1 CELL VARIANT: CD73 IC50. The method in brief:
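Stably transfected CHO-K1 cells expressing human CD73 (1×10^4/well) incubated 4 h with compound (8-point 1:3 titration, top 10 μM final, 0.2% DMSO) and 150 μM AMP. Residual AMP in supernatant measured by CellTiter-Glo luminescence with 1 μM ATP after 30 min at room temperature; IC50 by nonlinear regression of percent inhibition vs high/low controls.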

Experiment [1] addresses T2, Human CD73 (amino acid residues 27-549) (Homo sapiens, UniProt P21589).
T2 construct: Human CD73 (amino acid residues 27-549); His tag (N); made in house; host or cells: E. coli
T2 sequence (P21589 27-549): T1 sequence (P21589 27-549)
As to the kind of experiment: CD73 enzymatic assay (luciferase-based indirect assay, CellTiter-Glo). The experiment is classed as biochemical. The note with it: 0.4 nM CD73, 150 μM AMP, 1 hour at room temperature. The method in brief: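 His-tagged human CD73 (27-549) from E. coli, 0.4 nM, with 150 μM AMP in 50 mM HEPES pH 7.4, 0.01% Tween 20; 1 h at room temperature. AMP remaining read by CellTiter-Glo 2.0 luminescence with 1 μM final ATP after 30 min. IC50 from nonlinear regression of % inhibition.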
A general note: Cellular ATP, detected with luciferase, serves as a proxy for viable cell number.

Turning to `O=C(NC1CCN(C(=O)c2ccc(F)cc2)CC1)O[C@@H]1CCN(c2cn[nH]c(=O)c2Cl)C1` [P-0404, (R)-1-(5-chloro-6-oxo-1,6-dihydropyridazin-4-yl)pyrrolidin-3-yl (1-(4-fluorobenzoyl)piperidin-4-yl)carbamate], the concentration for half-maximal inhibition (IC50) (at human CD73; in experiment [1]) was 0.001 to 10 µM throughout.
Regarding `CC1(NC(=O)O[C@@H]2CCN(c3cn[nH]c(=O)c3Cl)C2)CCCC1` [P-0405, (R)-1-(5-chloro-6-oxo-1,6-dihydropyridazin-4-yl)pyrrolidin-3-yl (1-methylcyclopentyl)carbamate], the IC50 (on human CD73; in experiment [1]) was 0.001 to 10 µM each time.
For `O=C(NC1(C2CCCC2)CC1)O[C@@H]1CCN(c2cn[nH]c(=O)c2Cl)C1` [P-0406, (R)-1-(5-chloro-6-oxo-1,6-dihydropyridazin-4-yl)pyrrolidin-3-yl (1-cyclopentylcyclopropyl) carbamate], the IC50 (on human CD73; in experiment [1]) was 0.001 to 10 µM in each case.
In the case of `O=C1CC2CCC(C1)C2NC(=O)O[C@@H]1CCN(c2cn[nH]c(=O)c2Cl)C1` (stereo partly drawn) [P-0407, (R)-1-(5-chloro-6-oxo-1,6-dihydropyridazin-4-yl)pyrrolidin-3-yl (3-oxobicyclo[3.2.1]octan-8-yl)carbamate], the IC50 (on human CD73; in experiment [1]) was 0.001 to 10 µM throughout.
Take `CCC1(NC(=O)O[C@@H]2CCN(c3cn[nH]c(=O)c3Cl)C2)CCCC1` [P-0408, (R)-1-(5-chloro-6-oxo-1,6-dihydropyridazin-4-yl)pyrrolidin-3-yl (1-ethylcyclopentyl)carbamate]: the IC50 (on human CD73; in experiment [1]) was 0.001 to 10 µM throughout.
On to `CS(=O)(=O)N[C@H]1CC[C@H](NC(=O)O[C@@H]2CCN(c3cnn(CC(O)CO)c(=O)c3Cl)C2)CC1` (stereo partly drawn) [P-0409, (3R)-1-(5-chloro-1-(2,3-dihydroxypropyl)-6-oxo-1,6-dihydropyridazin-4-yl)pyrrolidin-3-yl ((1r,4R)-4-(methylsulfonamido)cyclohexyl)carbamate], for which the IC50 (on human CD73; in experiment [1]) was 0.001 to 10 µM throughout.
With `O=C(NC1(C2CCCCC2)CC1)O[C@@H]1CCN(c2cn[nH]c(=O)c2Cl)C1` [P-0410, (R)-1-(5-chloro-6-oxo-1,6-dihydropyridazin-4-yl)pyrrolidin-3-yl (1-cyclohexylcyclopropyl) carbamate], the IC50 (on human CD73; in experiment [1]) was 0.001 to 10 µM each time.
As to `N#CCC1(NC(=O)O[C@@H]2CCN(c3cn[nH]c(=O)c3Cl)C2)CCCC1` [P-0411, (R)-1-(5-chloro-6-oxo-1,6-dihydropyridazin-4-yl)pyrrolidin-3-yl (1-(cyanomethyl)cyclopentyl) carbamate], the IC50 (on human CD73; in experiment [1]) was 0.001 to 10 µM in each case.
For the molecule `Cc1csc(C2(NC(=O)O[C@@H]3CCN(c4cn[nH]c(=O)c4Cl)C3)CCCC2)n1` [P-0412, (R)-1-(5-chloro-6-oxo-1,6-dihydropyridazin-4-yl)pyrrolidin-3-yl (1-(4-methylthiazol-2-yl)cyclopentyl)carbamate], the IC50 (at human CD73; in experiment [1]) was 0.001 to 10 µM in each case.
Turning to `CC1(C)CCCCC1NC(=O)O[C@@H]1CCN(c2cn[nH]c(=O)c2Cl)C1` (stereo partly drawn) [P-0413, (R)-1-(5-chloro-6-oxo-1,6-dihydropyridazin-4-yl)pyrrolidin-3-yl (2,2-dimethylcyclohexyl)carbamate], the IC50 (on human CD73; in experiment [1]) was 0.001 to 10 µM throughout.
For `NCCn1ncc(N2CC[C@@H](OC(=O)NC3CCC(F)(F)CC3)C2)c(Cl)c1=O` [P-0414, (R)-1-(1-(2-aminoethyl)-5-chloro-6-oxo-1,6-dihydropyridazin-4-yl)pyrrolidin-3-yl (4,4-difluorocyclohexyl)carbamate], the IC50 (at human CD73; in experiment [1]) was 0.001 to 10 µM each time.
For the molecule `NCCn1ncc(N2CC[C@@H](OC(=O)NC3CCCC3)C2)c(Cl)c1=O` [P-0415, (R)-1-(1-(2-aminoethyl)-5-chloro-6-oxo-1,6-dihydropyridazin-4-yl)pyrrolidin-3-yl cyclopentylcarbamate], the IC50 (at human CD73; in experiment [1]) was 0.001 to 10 µM in each case.
For `O=C(NC1CCN(C(=O)c2cccnc2)CC1)O[C@@H]1CCN(c2cn[nH]c(=O)c2Cl)C1` [P-0416, (R)-1-(5-chloro-6-oxo-1,6-dihydropyridazin-4-yl)pyrrolidin-3-yl (1-nicotinoylpiperidin-4-yl)carbamate], the IC50 (at human CD73; in experiment [1]) was 0.001 to 10 µM in each case.
On to `O=C(NC1CCN(C(=O)c2cccnc2Cl)CC1)O[C@@H]1CCN(c2cn[nH]c(=O)c2Cl)C1` [P-0417, (R)-1-(5-chloro-6-oxo-1,6-dihydropyridazin-4-yl)pyrrolidin-3-yl (1-(2-chloronicotinoyl)piperidin-4-yl)carbamate], for which the IC50 (on human CD73; in experiment [1]) was 0.001 to 10 µM throughout.
With `O=C(NC1CCN(C(=O)c2ccc(Cl)nc2)CC1)O[C@@H]1CCN(c2cn[nH]c(=O)c2Cl)C1` [P-0418, (R)-1-(5-chloro-6-oxo-1,6-dihydropyridazin-4-yl)pyrrolidin-3-yl (1-(6-chloronicotinoyl)piperidin-4-yl)carbamate], the IC50 (on human CD73; in experiment [1]) was 0.001 to 10 µM throughout.
As to `O=C(NC1CCN(C(=O)c2ccc(C(F)(F)F)nc2)CC1)O[C@@H]1CCN(c2cn[nH]c(=O)c2Cl)C1` [P-0419, (R)-1-(5-chloro-6-oxo-1,6-dihydropyridazin-4-yl)pyrrolidin-3-yl (1-(6-(trifluoromethyl)nicotinoyl)piperidin-4-yl)carbamate], the concentration for half-maximal inhibition (IC50) (on human CD73; in experiment [1]) was 0.001 to 10 µM throughout.
Turning to `O=C(NC1CCN(C(=O)Cc2ccccc2Br)CC1)O[C@@H]1CCN(c2cn[nH]c(=O)c2Cl)C1` [P-0420, (R)-1-(5-chloro-6-oxo-1,6-dihydropyridazin-4-yl)pyrrolidin-3-yl (1-(2-(2-bromophenyl)acetyl)piperidin-4-yl)carbamate], the half-maximal inhibitory concentration (IC50) (at human CD73; in experiment [1]) was 0.001 to 10 µM throughout.
Take `O=C(NC1CCN(C(=O)Cc2ccccc2Cl)CC1)O[C@@H]1CCN(c2cn[nH]c(=O)c2Cl)C1` [P-0421, (R)-1-(5-chloro-6-oxo-1,6-dihydropyridazin-4-yl)pyrrolidin-3-yl (1-(2-(2-chlorophenyl)acetyl)piperidin-4-yl)carbamate]: the IC50 (on human CD73; in experiment [1]) was 0.001 to 10 µM each time.
In the case of `O=C(NC1CCN(C(=O)Cc2c(F)cccc2Cl)CC1)O[C@@H]1CCN(c2cn[nH]c(=O)c2Cl)C1` [P-0422, (R)-1-(5-chloro-6-oxo-1,6-dihydropyridazin-4-yl)pyrrolidin-3-yl (1-(2-(2-chloro-6-fluorophenyl)acetyl)piperidin-4-yl)carbamate], the IC50 (at human CD73; in experiment [1]) was 0.001 to 10 µM each time.
As to `O=C(NC1C2CCC1CC(O)C2)O[C@@H]1CCN(c2cn[nH]c(=O)c2Cl)C1` (stereo partly drawn) [P-0423, (R)-1-(5-chloro-6-oxo-1,6-dihydropyridazin-4-yl)pyrrolidin-3-yl (3-hydroxybicyclo[3.2.1]octan-8-yl)carbamate], the concentration for half-maximal inhibition (IC50) (on human CD73; in experiment [1]) was 0.001 to 10 µM throughout.
Take `O=C(NC1CCCC(F)(F)C1)O[C@@H]1CCN(c2cn[nH]c(=O)c2Cl)C1` (stereo partly drawn) [P-0424, (R)-1-(5-chloro-6-oxo-1,6-dihydropyridazin-4-yl)pyrrolidin-3-yl (3,3-difluorocyclohexyl)carbamate]: the 50% inhibitory concentration (IC50) (on human CD73; in experiment [1]) was 0.001 to 10 µM each time.
For the molecule `CC1CCCC(NC(=O)O[C@@H]2CCN(c3cn[nH]c(=O)c3Cl)C2)C1` (stereo partly drawn) [P-0425, (R)-1-(5-chloro-6-oxo-1,6-dihydropyridazin-4-yl)pyrrolidin-3-yl (3-methylcyclohexyl)carbamate], the IC50 (at human CD73; in experiment [1]) was 0.001 to 10 µM throughout.
Consider `O=C(NC1CCCC12CC2)O[C@@H]1CCN(c2cn[nH]c(=O)c2Cl)C1` (stereo partly drawn) [P-0426, (R)-1-(5-chloro-6-oxo-1,6-dihydropyridazin-4-yl)pyrrolidin-3-yl spiro[2.4]heptan-4-ylcarbamate], for which the IC50 (at human CD73; in experiment [1]) was 0.001 to 10 µM throughout.
For `N#CC12CC(NC(=O)O[C@@H]3CCN(c4cn[nH]c(=O)c4Cl)C3)(C1)C2` [P-0427, (R)-1-(5-chloro-6-oxo-1,6-dihydropyridazin-4-yl)pyrrolidin-3-yl (3-cyanobicyclo[1.1.1]pentan-1-yl)carbamate], the IC50 (on human CD73; in experiment [1]) was 0.001 to 10 µM in each case.
`O=C(NC12CC(C1)C2)O[C@@H]1CCN(c2cn[nH]c(=O)c2Cl)C1` [P-0428, (R)-1-(5-chloro-6-oxo-1,6-dihydropyridazin-4-yl)pyrrolidin-3-yl bicyclo[1.1.1]pentan-1-ylcarbamate]: the half-inhibitory concentration (IC50) (at human CD73; in experiment [1]) was 0.001 to 10 µM each time.
